From patent publication US20240397979A1, “METHODS FOR DELIVERING BENEFICIAL NUTRIENTS TO INVERTEBRATES THROUGH A MICROORGANISM DEFICIENT IN ANTINUTRIENTS” (APIX BIOSCIENCES, priority 2021, published 2024)

Assays:
bee gut = test: Passage of dietary ergosterol across the bee gut; format: in vivo; settings: ergosterol in bee diet
adult worker honey bees = test: Survival of bee cohorts on diets containing ergosterol; format: in vivo, Apis mellifera; settings: bees fed diets containing ergosterol, FIG. 2
Source text: Example 2: Survival: Bees are Less Likely to Survive on Diets Containing Ergosterol Method: Newly emerged adult worker honey bees fed with a diet treatment and ad libitum access to water. The treatment diet contained the ergosterol. Newly-emerged bees were removed from the brood frame and cohorts of 30 bees per replicate were housed in plastic rearing cages. In all experiments, 10 cohorts of ˜30 bees each were used for each treatment group. In all diets carbohydrate was maintained at 60% using powdered sugar and fat was maintained at 8% using an emulsion. Consumption of each diet was measured every day over the course of the experiment. The number of bees alive in the box was counted each day for 14 days.

honey bees = test: Brood production of honey bee colonies on diets with ergosterol; format: in vivo, Apis mellifera; settings: bee food with ergosterol vs without, FIGS. 3 and 4
Description: Example 3 and 4. Brood Production: Honey Bees Cannot Produce Brood on Diets with high quantities of ergosterol Method: Fully functional insulated styrofoam […] nucs comprised 5 mini frames populated with adult workers and 1 mated laying queen bee were populated with 300-400 ml of young adult workers ( N<1,000 bees of mixed ages). […] Each treatment was tested with 3-6 colonies; each colony was fed with a 60-100 g patty (solid diet) on the top feeder fitted with a mesh floor. Diet was fed on the first day and again on day 6; the quantity consumed was measured on day 6 and day 15. If no larvae or eggs/queen are observed by day 6 then the experiment is terminated. The number of capped brood cells was counted every 15 days. The number of bee seams was estimated during each inspection. Sugar syrup (34%) and water was provided in feeders inside the tent to prevent carbohydrate starvation and to stimulate foraging activity.

[1] = tested on: adult worker honey bees (Apis mellifera) or adult worker bumble bees (Bombus terrestris); test: Two-choice preference assay: diet with ergosterol vs diet with no sterol; format: in vivo; settings: feed containing ergosterol vs food without it, FIG. 1
Description: Example 1. Preference Assay: Bees Avoid Ergosterol in Foods Method: Newly emerged adult worker honey bees (Apis mellifera) or adult worker bumble bees (Bombus terrestris) were tested in a two-choice preference assay in which bees had access to two diets and adlibitum access to water. One treatment diet contained the ergosterol and the other contained no sterol. Newly emerged bees were removed from the brood frame and cohorts of 30 bees per replicate were housed in plastic rearing cages. In all experiments, 10 cohorts of ˜30 bees each were used for each treatment group. In all diets carbohydrate was maintained at 60% using powdered sugar and fat was maintained at 8% using an emulsion. Consumption of each diet was measured every 24 h for 5 days. Preference index was calculated as (amount of treatment consumed-amount of control consumed)/(total amount of food consumed).

Nosema ceranae = test: Nosema infection of bees fed ergosterol-containing diet; format: in vivo; settings: diet supplemented with ergosterol, FIG. 5
Source text: Method: Newly emerged adult worker honey bees (Apis mellifera) or adult worker bumble bees (Bombus terrestris) were reared in an assay to test whether diet induced an increase in Nosema ceranae infection. Bees had access to a diet composed of 15% protein, 6% fat, 78% carbohydrates and 1% vitamins and minerals and adlibitum access to water and sucrose solution. One treatment diet contained the ergosterol and the other contained no sterol. Newly emerged bees were removed from the brood frame and cohorts of 30 bees per replicate were housed in plastic rearing cages. In all experiments, 10 cohorts of ˜30 bees each were used for each treatment group. Consumption of each diet was measured every 24 h for 14 days.
Nosema ceranae infection of each cohort was produced as in Tischler et al. (2017). Briefly, Nosema spores were collected in 10 bees, concentrated and cultured. Cultures were added to 30% sucrose solutions and fed to the bees.

CC(C)[C@@H](C)/C=C/[C@@H](C)[C@H]1CC[C@H]2C3=CC=C4C[C@@H](O)CC[C@]4(C)[C@H]3CC[C@]12C [ergosterol]
Crossing of the bee gut (bee gut): does not cross the bee gut | Lifespan (adult worker honey bees): shorter lifespans | Brood production (honey bees): less brood | Diet preference [1]: bees actively avoid feed containing ergosterol | Nosema population in the gut (Nosema ceranae): increases the Nosema population in the gut | Mortality (Nosema ceranae; bees inoculated with Nosema ceranae): higher mortality
